The target of assay [1] is T1, FLT3 (Homo sapiens, UniProt P36888).
T1 sequence (P36888 27-993): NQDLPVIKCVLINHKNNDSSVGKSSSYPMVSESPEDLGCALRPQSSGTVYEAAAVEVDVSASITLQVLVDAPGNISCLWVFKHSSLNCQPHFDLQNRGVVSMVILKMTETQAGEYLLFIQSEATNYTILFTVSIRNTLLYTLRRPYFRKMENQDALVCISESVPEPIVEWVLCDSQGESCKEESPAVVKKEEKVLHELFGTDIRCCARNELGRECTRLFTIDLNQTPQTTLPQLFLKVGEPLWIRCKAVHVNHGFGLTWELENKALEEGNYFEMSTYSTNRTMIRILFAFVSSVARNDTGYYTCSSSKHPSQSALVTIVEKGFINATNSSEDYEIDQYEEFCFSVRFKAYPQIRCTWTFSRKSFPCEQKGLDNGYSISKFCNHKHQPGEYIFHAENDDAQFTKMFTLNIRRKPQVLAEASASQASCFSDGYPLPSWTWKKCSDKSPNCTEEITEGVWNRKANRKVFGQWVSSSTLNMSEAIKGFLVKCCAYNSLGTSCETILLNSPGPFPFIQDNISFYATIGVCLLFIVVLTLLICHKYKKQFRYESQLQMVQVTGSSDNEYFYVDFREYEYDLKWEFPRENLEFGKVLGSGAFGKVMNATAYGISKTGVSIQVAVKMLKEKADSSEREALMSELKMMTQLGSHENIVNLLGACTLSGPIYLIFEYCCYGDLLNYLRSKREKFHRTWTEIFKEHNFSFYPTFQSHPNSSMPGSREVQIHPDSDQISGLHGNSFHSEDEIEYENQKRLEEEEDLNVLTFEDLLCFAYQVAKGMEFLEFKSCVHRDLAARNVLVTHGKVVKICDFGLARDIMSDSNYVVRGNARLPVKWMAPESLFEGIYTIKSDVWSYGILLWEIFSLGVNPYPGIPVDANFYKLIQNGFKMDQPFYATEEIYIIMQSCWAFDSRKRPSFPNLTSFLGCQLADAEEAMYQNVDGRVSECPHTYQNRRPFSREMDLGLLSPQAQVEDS
The experiment in a line: TR-FRET kinase activity assay, FLT3. It is filed as biochemical. The conditions noted are these: ATP at Km, 60 minutes. The method in brief: (§1)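 IC50 reflects the drop in TR-FRET between Eu anti-phosphotyrosine antibody and labelled peptide after a 60-minute room-temperature reaction. Buffer was 50 mM HEPES pH 7.5 with 10 mM MgCl2, 1 mM EGTA, 0.01% Brij 35 and 1 mM DTT, with ATP at Km per enzyme and EDTA quench.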
On the technique in general: TR-FRET usually uses a lanthanide donor and a delayed reading to cut background.

The target in assay [2] is T2, TYRO3 (Homo sapiens, UniProt Q06418).
T2 sequence (Q06418 41-890): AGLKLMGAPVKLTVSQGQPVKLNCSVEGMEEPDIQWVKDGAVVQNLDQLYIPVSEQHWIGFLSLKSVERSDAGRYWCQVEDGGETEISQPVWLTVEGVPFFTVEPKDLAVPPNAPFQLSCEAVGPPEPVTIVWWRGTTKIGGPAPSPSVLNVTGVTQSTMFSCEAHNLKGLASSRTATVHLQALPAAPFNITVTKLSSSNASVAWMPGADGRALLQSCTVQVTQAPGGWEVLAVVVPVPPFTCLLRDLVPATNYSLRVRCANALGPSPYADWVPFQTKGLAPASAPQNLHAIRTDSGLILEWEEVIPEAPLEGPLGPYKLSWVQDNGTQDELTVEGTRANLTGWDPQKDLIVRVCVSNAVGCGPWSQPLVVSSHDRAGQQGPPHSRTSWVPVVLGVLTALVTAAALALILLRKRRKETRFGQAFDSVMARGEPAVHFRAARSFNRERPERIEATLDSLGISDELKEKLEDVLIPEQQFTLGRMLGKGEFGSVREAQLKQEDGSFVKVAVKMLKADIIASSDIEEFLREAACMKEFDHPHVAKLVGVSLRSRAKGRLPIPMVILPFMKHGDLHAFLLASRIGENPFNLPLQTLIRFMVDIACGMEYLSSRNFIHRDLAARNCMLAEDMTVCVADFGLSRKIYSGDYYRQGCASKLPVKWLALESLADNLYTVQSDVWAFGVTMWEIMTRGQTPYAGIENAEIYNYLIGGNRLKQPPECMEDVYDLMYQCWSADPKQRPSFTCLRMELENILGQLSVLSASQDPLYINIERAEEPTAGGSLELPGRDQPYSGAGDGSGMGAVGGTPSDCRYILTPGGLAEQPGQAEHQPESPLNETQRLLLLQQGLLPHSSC
The experiment in a line: TR-FRET kinase activity assay, TYRO3. It is filed as biochemical. To be noted: ATP at Km, 60 minutes. The method in brief: as §1

As usually defined, the IC50 is the concentration that gives 50% inhibition. The low end stands for inhibition by little substance, the high end for a need for much substance. For `CNC(=O)c1cc(-c2cc([C@H]3CC[C@H](O)CC3)n3nc(N[C@@H](C)COC)ncc23)cc(C)n1` [Compound 335], the IC50 in assay [1] was 1 to 10 µM; in assay [2], at most 0.1 µM.

Consider `COC[C@H](C)Nc1ncc2c(-c3cnn(C(C)(C)C(=O)N4CCS(=O)(=O)CC4)c3)cc([C@H]3CC[C@H](O)CC3)n2n1` [Compound 331, 1-(1,1-dioxidothiomorpholino)-2-(4-(7-((trans)-4-hydroxycyclohexyl)-2-(((S)-1-methoxypropan-2-yl)amino)pyrrolo[2,1-f][1,2,4]triazin-5-yl)-1H-pyrazol-1-yl)-2-methylpropan-1-one], for which the IC50 is 0.1 to 1 µM in assay [1] and at most 0.1 µM in assay [2].

For the compound `COC[C@H](C)Nc1ncc2c(-c3ccc(CN4CCOCC4)cc3)cc([C@H]3CC[C@H](NS(C)(=O)=O)CC3)n2n1` [Compound 301], the half-inhibitory concentration (IC50) in assay [1] and in assay [2] was at most 0.1 µM each time.

With `CNc1c(N[C@H]2CC[C@H](c3cc(-c4ccc(CN5CCOCC5)cc4)c4cnc(N[C@@H](C)COC)nn43)CC2)c(=O)c1=O` [Compound 316, 3-(((trans)-4-(2-(((S)-1-methoxypropan-2-yl)amino)-5-(4-(morpholinomethyl)phenyl)pyrrolo[2,1-f][1,2,4]triazin-7-yl)cyclohexyl)amino)-4-(methylamino)cyclobut-3-ene-1,2-dione], the IC50 in assay [1] and in assay [2] was at most 0.1 µM each time.

In the case of `COC[C@H](C)Nc1ncc2c(-c3cnn(C(C)(C)C(=O)N4CCC4)c3)cc([C@H]3CC[C@H](O)CC3)n2n1` [Compound 283], the IC50 in assay [1] was 1 to 10 µM; in assay [2] it was at most 0.1 µM.

Turning to `CCCCC[C@H](C)Nc1ncc2c(N3CCC(C(=O)O)CC3)cc([C@H]3CC[C@H](O)CC3)n2n1` [Compound 117], the 50% inhibitory concentration (IC50) in assay [1] is 1 to 10 µM; in assay [2], 0.1 to 1 µM.

Take `CC(CC(F)(F)F)Nc1ncc2c(-c3cnc(C(=O)O)nc3)cc(C3CCC(O)CC3)n2n1` (stereo not drawn) [Compound 299]: the half-inhibitory concentration (IC50) in assay [1] was 1 to 10 µM; in assay [2], at most 0.1 µM.

Regarding `C[C@@H](CC(F)(F)F)Nc1ncc2c(-c3cncc(C(=O)N4CCOCC4)c3)cc([C@H]3CC[C@H](O)CC3)n2n1` [Compound 311], the values for the IC50 in assay [1] and in assay [2] were 0.1 to 1 µM and at most 0.1 µM, respectively.

Consider `COCC(C)Nc1ncc2c(-c3cnn(Cc4ccc(=O)n(C)c4)c3)cc(C3CCC(O)CC3)n2n1` (stereo not drawn) [Compound 322], for which the IC50 in assay [1] is 0.1 to 1 µM; in assay [2], at most 0.1 µM.

Consider `COC[C@H](C)Nc1ncc2c(-c3cnn(C4CN(C(C)=O)C4)c3)cc([C@H]3CC[C@H](O)CC3)n2n1` [Compound 286], for which the IC50 in assay [1] and in assay [2] was at most 0.1 µM each time.

As to `C[C@@H](CC(F)(F)F)Nc1ncc2c(-c3cnn(CCS(C)(=O)=O)c3)cc([C@H]3CC[C@H](O)CC3)n2n1` [Compound 288], the 50% inhibitory concentration (IC50) in assay [1] and in assay [2] was at most 0.1 µM in each case.

Consider `COC[C@H](C)Nc1ncc2c(-c3ccnc(N4CCN(S(C)(=O)=O)CC4)c3)cc([C@H]3CC[C@H](O)CC3)n2n1` [Compound 338], for which the IC50 in assay [1] is 0.1 to 1 µM; in assay [2] it was at most 0.1 µM.

On to `COC[C@H](C)Nc1ncc2c(-c3cnn(Cc4cn[nH]c4)c3)cc([C@H]3CC[C@H](O)CC3)n2n1` [Compound 332], for which the IC50 is 0.1 to 1 µM in assay [1] and at most 0.1 µM in assay [2].

As to `COC[C@H](C)Nc1ncc2c(-c3cnn(Cc4cnccn4)c3)cc([C@H]3CC[C@H](O)CC3)n2n1` [Compound 305], the half-inhibitory concentration (IC50) in assay [1] was 0.1 to 1 µM; in assay [2], at most 0.1 µM.

Consider `COC[C@H](C)Nc1ncc2c(-c3cnn(C(C)(C)C(=O)O)c3)cc([C@H]3CC[C@H](O)CC3)n2n1` [Compound 284], for which the IC50 in assay [1] was 1 to 10 µM; in assay [2], at most 0.1 µM.

Source of the values: patent US11040981B2, “Pyrrolotriazine compounds and methods of inhibiting TAM kinases” (Syros Pharmaceuticals, Inc., priority 2017, dated 2021).
